The values that follow come from patent US20140221468A1, “Compounds that Modulate Store Operated Calcium Channels” (The Board of Trustees of the Leland Stanford Junior …, priority 2010, published 2014).

The target in assay [1] is SOC. Description: NFAT coupled luciferase assay (NFAT-luc) for functional inhibition of SOC. It counts as cell-based. The settings on record: Jurkat T cells pretreated 30 minutes, activated by thapsigargin (TG) and PMA; read-out: EC50, NFAT-luc assay dose response. As to the method: To evaluate the ability of these compounds to inhibit SOC, a NFAT coupled luciferase assay was utilized as a functional secondary screen (FIG. 2A). This assay allows the monitoring of the IL2 promoter dependent production of luciferase that is directly activated by SOC through dephosphorylation of NFAT in T lymphocytes. This assay requires treatment of PMA, a PKC agonist, in parallel with SOC activation. Jurkat T cells were pretreated with each of the 51 compounds for 30 minutes and then activated by treatment of thapsigargin (TG) and PMA. TG depletes the ER stores by inhibiting the SERCA pumps that are responsible for refilling these stores with calcium. This process in turn activates SOC currents.
Fifty one compounds identified in the binding assay were tested by NFAT-luc assay to evaluated their SOC inhibitory properties (top). Renilla-luc was also monitored as an internal control of viability of the cells (bottom).
To further examine the hits produced from the secondary luciferase screen, four compounds AnCoA4, AnCoA5, AnCoG4, and AnCoF6 were selected (FIGS. 2B, C, D). The Dose response curve calculated from FIG. 2B is shown in FIG. 2C with a calculated EC50 equal to 0.9 μM.

Assay [2] deals with SOC. Description: Fura2-AM calcium imaging in HEK293 cells. It counts as cell-based. The settings on record: for effect on intracellular calcium levels, post SOC activation treatment: applied after ER store depletion, at minute 510 of imaging. As to the method: Calcium imaging was utilized for further characterization of the compounds and analogs. Using Fura2-AM, a known ratiometric calcium indicator, SOC dependent intracellular calcium rise and lack thereof was measured after treatment of our compounds (FIG. 3A-B). […] 1 minute before treatment of Thapsigargin.
This observation was in line with the previous luciferase assays and confirmed the ability of these compounds to inhibit SOC.
LaCl, a general blocker of divalent channels, was also used as a comparison for the post treatment experiment. […] HEK293 cells were treated with DMSO (black), LaCl at 1 uM (red), AnCoA4 at 50 uM (orange), and BiochaninA at 50 uM (green) at minute 510 of the calcium imaging. The intracellular calcium levels quickly drop after LaCl treatment whereas the compound treatment had no effect on the calcium levels.imaging.
On the technique in general: Calcium assays in cells follow changes in intracellular calcium, usually with a dye or a luminescent sensor.

The next assay has as its system jurkat T lymphocytes. Briefly: qRT PCR of T and B lymphocyte activating genes in jurkat T lymphocytes. It counts as cell-based, human. As to the method: The ability of AnCoA4 to inhibit activation of jurkat T lymphocytes was investigated (FIG. 4A). As IL2 gene production was previously investigated indirectly using a luciferase assay, the production of 83 more genes was monitored using real time quantitative PCR (qRT PCR). […] Jurkat T cells were treated with DMSO and AnCoA4 30 minutes before activation with PHA. Total RNA was extracted after 4 hours. […] Cells were pretreated with AnCoA4 30 minutes before activation with PHA or thapsigargin plus PMA for various time length of activation.
The ability of the AnCoA4 alone for independent up regulation of IL2 gene was also tested and no effects were observed.

Setting [3] is: 50 uM pretreatment for 30 minutes, then PHA activation, qRT PCR.

Structures are written as SMILES.

As for `COc1cc2c(cc1-c1coc3c4c(ccc3c1=O)OC(C)(C)C=C4)OCO2` [AnCoA4], the EC50 (in general, the concentration that produces a half-maximal response) at SOC [1] amounted to 900 nM. Also, the “SOC dependent intracellular calcium influx, pretreatment” value with SOC [2] (50 uM, 1 minute before thapsigargin) is reported as “significantly reduced”. In addition, the “effect on intracellular calcium levels, post SOC activation treatment” value (from here on “effect on intracellular calcium levels”) with SOC [2] (50 uM) is “no effect”. Besides, in the assay on jurkat T lymphocytes (setting [3]), the CCL4 down regulation was about 180 folds and the IL2 down regulation entry is given as “about 6 folds”. Also, in the assay with jurkat T lymphocytes (84 genes, 50 uM pretreatment for 30 minutes, then PHA activation), the “mRNA levels for most genes in comparison with the control sample” value was “significantly lower”. Also, in the assay on jurkat T lymphocytes (compound alone, without activation), the “independent up regulation of IL2 gene by compound alone” value is reported as “no effects”.

For `COc1ccc(-c2coc3cc(O)cc(O)c3c2=O)cc1` [BiochaninA], in the assay on SOC [2] (50 uM), the “effect on intracellular calcium levels” value is given as “no effect”.

Regarding `[Cl][La]([Cl])[Cl]` [LaCl, reference compound], the “effect on intracellular calcium levels” value in the assay with SOC [2] (1 uM) is given as “quickly drop”.
